Experimental data reported in the supplement of paper PMC10307832.

Key:
Experiment in all cases: relative viability (nuclei count vs DMSO), 5 days (fraction); higher = more cells survive
[1] = compound: CCN1CCN(c2ccc(Nc3cc(N(C)C(=O)Nc4c(Cl)c(OC)cc(OC)c4Cl)ncn3)cc2)CC1 [BGJ398] + O=C(c1cc(Cc2n[nH]c(=O)c3ccccc23)ccc1F)N1CCN(C(=O)C2CC2)CC1 [Olaparib] (partner 8 µM)
Procedure, shortened: (§1)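 Relative viability is defined as nuclei in treated wells over nuclei in vehicle wells. Duplicate plates were run and medians reported. Lung cancer cell lines in 1536-well plates were dosed by pin tool one day after seeding, with one drug or with a fixed anchor-drug dose plus five library-drug doses (not always all listed) in √10 steps, and nuclei were counted after 5 days.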

[2] = compound: CCN1CCN(c2ccc(Nc3cc(N(C)C(=O)Nc4c(Cl)c(OC)cc(OC)c4Cl)ncn3)cc2)CC1 [BGJ398] + CC(=O)c1c(C)c2cnc(Nc3ccc(N4CCNCC4)cn3)nc2n(C2CCCC2)c1=O [Palbociclib] (partner 0.5 µM)
Procedure, shortened: as §1

[3] = compound: C1=CC2=NC=CN=C2C=C1/C=C/3\C(=O)NC(=O)S3 + CC(=O)c1c(C)c2cnc(Nc3ccc(N4CCNCC4)cn3)nc2n(C2CCCC2)c1=O [Palbociclib] (partner 0.5 µM)
Procedure, shortened: as §1

[4] = compound: CCN1CCN(c2ccc(Nc3cc(N(C)C(=O)Nc4c(Cl)c(OC)cc(OC)c4Cl)ncn3)cc2)CC1 [BGJ398] + CS(=O)(=O)N1CCN(Cc2cc3nc(-c4cccc5[nH]ncc45)nc(N4CCOCC4)c3s2)CC1 [Pictilisib] (partner 1 µM)
Procedure, shortened: as §1

Row | Cell Line | relative viability ([1]; first compound 0.01 µM) | relative viability ([1]; first compound 0.03162 µM) | relative viability ([1]; first compound 0.1 µM) | relative viability ([1]; first compound 0.3162 µM) | relative viability ([1]; first compound 1 µM) | relative viability ([2]; first compound 0.01 µM) | relative viability ([2]; first compound 0.03162 µM) | relative viability ([2]; first compound 0.1 µM) | relative viability ([2]; first compound 0.3162 µM) | relative viability ([2]; first compound 1 µM) | relative viability ([3]; first compound 0.02 µM) | relative viability ([3]; first compound 0.06325 µM) | relative viability ([3]; first compound 0.2 µM) | relative viability ([3]; first compound 0.6325 µM) | relative viability ([3]; first compound 2 µM) | relative viability ([4]; first compound 0.01 µM) | relative viability ([4]; first compound 0.03162 µM) | relative viability ([4]; first compound 0.1 µM) | relative viability ([4]; first compound 0.3162 µM) | relative viability ([4]; first compound 1 µM)
1 | HCC-44 | 0.963 | 0.952 | 1.02 | 0.931 | 0.953 | 0.919 | 0.962 | 1.03 | 1.02 | 0.856 | 0.866 | 0.946 | 1.03 | 0.969 | 0.919 | 0.544 | 0.671 | 0.682 | 0.602 | 0.401
2 | HCC-78 | 0.785 | 0.838 | 0.967 | 0.78 | 0.823 | 0.44 | 0.472 | 0.492 | 0.455 | 0.459 | 0.471 | 0.475 | 0.483 | 0.535 | 0.423 | 0.184 | 0.217 | 0.188 | 0.194 | 0.221
3 | HCC-366 | 0.368 | 0.378 | 0.422 | 0.335 | 0.448 | 0.435 | 0.415 | 0.422 | 0.388 | 0.476 | 0.355 |  | 0.357 | 0.366 | 0.374 | 0.0862 | 0.146 | 0.137 | 0.277 | 0.0758
4 | HCC-827 | 0.468 |  | 0.583 | 0.482 | 0.628 | 0.26 |  | 0.469 | 0.45 | 0.518 | 0.616 | 0.436 | 0.425 | 0.51 | 0.473 | 0.961 | 0.696 | 0.977 | 0.817 | 1.03
5 | HOP-62 | 0.291 | 0.525 | 0.538 | 0.349 | 0.558 | 0.464 | 0.509 | 0.537 | 0.473 | 0.492 | 0.478 | 0.527 | 0.44 | 0.373 | 0.449 | 0.731 | 0.768 | 0.649 | 1.16 | 0.669
6 | IA-LM | 0.772 | 0.841 | 0.917 | 0.742 | 0.79 |  |  |  |  |  |  |  |  |  |  | 0.343 | 0.39 | 0.334 | 0.391 | 0.311
7 | LC-2-ad | 0.766 | 0.759 | 0.694 | 0.677 | 0.749 | 0.477 | 0.516 | 0.5 | 0.524 | 0.499 | 0.463 | 0.455 | 0.481 | 0.53 | 0.352 | 0.547 | 0.492 | 0.467 | 0.419 | 0.392
8 | LCLC-97TM1 | 0.294 | 0.393 | 0.443 | 0.508 | 0.277 | 0.177 | 0.221 | 0.262 | 0.197 | 0.267 | 0.239 | 0.214 | 0.215 | 0.176 | 0.155 | 0.186 | 0.189 | 0.207 | 0.298 | 0.163
9 | LCLC-103H | 0.756 | 0.787 | 0.726 | 0.717 | 0.596 | 0.42 | 0.497 | 0.457 | 0.478 | 0.518 | 0.482 | 0.457 | 0.475 | 0.431 | 0.485 | 0.652 | 0.576 | 0.486 | 0.52 | 0.465
